# Data published in US20100056477A1, “FUNGICIDAL MIXTURES OF AMIDINYLPHENYL COMPOUNDS” (Bayer CropScience AG, priority 2006, published 2010).
# Legend:
# Septoria tritici = Septoria tritici test (wheat)/protective; format: in vivo; conditions: single active compound, rate of application 125 ppm, protective, evaluated 20 days after inoculation
# Experimental: (§1) Solvent: 50 parts by weight of n,n-dimethylacetamid
# (§2) Emulsifier: 1 part by weight of alkylaryl polyglycol ether
# (§3) To produce a suitable preparation of active compound, 1 part by weight of active compound or active compound combination is mixed with the stated amounts of solvent and emulsifier, and the concentrate is diluted with water to the desired concentration.
# To test the protective activity, young plants are sprayed with a preparation of active compound or active compound combination at the stated rate of application. After the spray coating has been dried, the plants are sprayed with a spore suspension of Septoria tritici. The plants remain for 48 hours at 20° C. and then 60 hours at 15° C. in an incubation cabinet at a relative atmospheric humidity of 100%.
# (§4) The plants are placed in a greenhouse at a temperature of approximately 15° C. and a relative atmospheric humidity of approximately 80%.
# The test is evaluated 20 days after inoculation. 0% means an efficacy which corresponds to that of the control, while an efficacy of 100% means that no disease is observed.
# Botrytis cinerea = assay: Botrytis test (beans)/protective; format: in vivo; conditions: single active compound, protective, evaluated 2 days after inoculation
# Experimental: Solvent: 24.5 parts by weight of acetone • 24.5 parts by weight of dimethylacetamide
# as §2
# To produce a suitable preparation of active compound, 1 part by weight of active compound is mixed with the stated amounts of solvent and emulsifier, and the concentrate is diluted with water to the desired concentration.
# To test for protective activity, young plants are sprayed with the preparation of active compound. After the spray coating has dried on, 2 small pieces of agar covered with growth of Botrytis cinerea are placed on each leaf. The inoculated plants are placed in a darkened chamber at 20° C. and a relative atmospheric humidity of 100%.
# 2 days after the inoculation, the size of the lesions on the leaves is evaluated. 0% means an efficacy which corresponds to that of the control, while an efficacy of 100% means that no disease is observed.
# Leptosphaeria nodorum = Leptosphaeria nodorum test (wheat)/protective; format: in vivo; conditions: single active compound, 125 ppm, protective, evaluated 10 days after inoculation
# Experimental: as §1, §2, §3
# To test for protective activity, young plants are sprayed with a preparation of active compound or active compound combination at the stated rate of application. After the spray coating has been dried, the plants are sprayed with a spore suspension of Leptosphaeria nodorum. The plants remain for 48 hours in an incubation cabinet at 20° C. and a relative atmospheric humidity of 100%.
# as §4
# The test is evaluated 10 days after the inoculation. 0% means an efficacy which corresponds to that of the control, while an efficacy of 100% means that no disease is observed.
compound,measurement,setting,value
N#Cc1c[nH]cc1-c1cccc2c1OC(F)(F)O2 [(b-19)],Efficacy in % a.e. (actual efficacy),Septoria tritici,30%
"CCN(C)/C=N/c1cc(C(F)F)c(OCCC[Si](C)(C)C)cc1C [(1-42), N′-{5-(difluoromethyl)-2-methyl-4-[3-(trimethylsilyl)propoxy]phenyl}-N-ethyl-N-methylimidoformamide]",Efficacy in %,Botrytis cinerea; 10 ppm,0%
same,Efficacy in %,Botrytis cinerea; 100 ppm,29%
same,chromatographic logP,LogP (HCOOH); HCOOH (formic acid),2.81
CC(C)[C@@H]1C2CCC1c1c(NC(=O)c3cn(C)nc3C(F)F)cccc12 (some centres unmarked) [(b-17)],Efficacy in % a.e. (actual efficacy),Septoria tritici,30%
"Cn1cc(C(=O)Nc2ccccc2C2CC2C2CC2)c(C(F)F)n1 (centres unmarked) [(b-1), reference compound]",Efficacy in % a.e. (actual efficacy),Septoria tritici,10%
same,Efficacy in %,Botrytis cinerea; 100 ppm,38%
CC(C)(C)C#Cc1ccc(-c2ccccc2NC(=O)c2cccnc2Cl)cc1 [(b-7)],Efficacy in % a.e. (actual efficacy),Leptosphaeria nodorum,67%
Cc1cc(OCCC[Si](C)(C)C)c(C(F)F)cc1N [5-(difluoromethyl)-2-methyl-4-[3-(trimethylsilyl)propoxy]aniline],chromatographic logP,LogP (HCOOH); HCOOH (formic acid),3.8
"CCN(C)/C=N/c1cc(C(F)(F)F)c(OCCC[Si](C)(C)C)cc1C [(1-37), N-[5-trifluoro-methyl-2-methyl-4-[3-(trimethylsilyl)propoxyl]phenyl]-N-ethyl-N-methyl-methanimidamide]",Efficacy in % a.e. (actual efficacy),Leptosphaeria nodorum,92%
same,Efficacy in % a.e. (actual efficacy),Septoria tritici,30%
same,Efficacy in %,Botrytis cinerea; 10 ppm,0%
same,Efficacy in %,Botrytis cinerea; 100 ppm,23%
Cc1cc(OCCC[Si](C)(C)C)c(C(F)F)cc1[N+](=O)[O-] [{3-[2-(difluoromethyl)-5-methyl-4-nitrophenoxy]propyl}(trimethyl)silane],chromatographic logP,LogP (HCOOH); HCOOH,5.44
"Cc1cc(Br)c(C=O)cc1[N+](=O)[O-] [2-bromo-4-methyl-5-nitrobenzaldehyd, 2-bromo-4-methyl-5-nitrobenzaldehyde]",chromatographic logP,LogP (HCOOH); HCOOH,2.61
"Cn1cc(C(=O)Nc2ccccc2-c2ccc(C#CC(C)(C)C)cc2)c(C(F)F)n1 [(b-5), reference compound]",Efficacy in % a.e. (actual efficacy),Leptosphaeria nodorum,67%
same,Efficacy in %,Botrytis cinerea; 10 ppm,80%
